In PubChem BioAssay AID330 (DTP/NCI, 2004):
Values joined by “and” are separate entries in the source; they are usually repeats but may differ in a detail not shown here. Identical values can stand only once. Inconclusive results and toxic doses are left out. Rule for the calls: active = survival T/C of 150% or more; inactive = T/C below 125% in these data.

Tested on: P388 leukemia ip, CD2F1 mice, survival T/C
Assay: NCI In Vivo Anticancer Drug Screen. Data for tumor model P388 Leukemia (intraperitoneal) in CD2F1 (CDF1) mice
Conditions: endpoint: median survival time, higher = longer survival
Outline: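 Mice carrying the transplanted tumor received test compound or vehicle. Survival was recorded in each group, and the value is the treated-group measurement divided by that of the vehicle-treated control group.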

[1] = dose: 50.0 mg/kg/injection, schedule: Q01DX009 (ip), vehicle: Klucel (hydroxypropylcellulose) (HPC)
[2] = dose: 100.0 mg/kg/injection, schedule: Q01DX009 (ip), vehicle: Klucel (hydroxypropylcellulose) (HPC)
[3] = dose: 50.0 mg/kg/injection, schedule: Q01DX005 (ip), vehicle: Klucel (hydroxypropylcellulose) (HPC)

Measured: T/C

O=C1Nc2ccccc2SC1c1ccccc1Cl (stereo not given)
inactive: dose: 6.25 mg/kg/injection, schedule: Q01DX009 (ip), vehicle: saline 96 % of control | dose: 12.5 mg/kg/injection, schedule: Q01DX009 (ip), vehicle: saline 99 % of control | dose: 25.0 mg/kg/injection, schedule: Q01DX009 (ip), vehicle: saline 105 % of control | dose: 50.0 mg/kg/injection, schedule: Q01DX009 (ip), vehicle: saline 106 % of control and 93 % of control | dose: 100.0 mg/kg/injection, schedule: Q01DX009 (ip), vehicle: saline 102 % of control | dose: 200.0 mg/kg/injection, schedule: Q01DX009 (ip), vehicle: saline 105 % of control | dose: 400.0 mg/kg/injection, schedule: Q01DX009 (ip), vehicle: saline 113 % of control

CCSCC1C(=O)C23CC1CCC2C12COC(O)C1C(C)(C)C(O)CC2OC3=O (stereo not given)
inactive: dose: 3.12 mg/kg/injection, schedule: Q01DX009 (ip), vehicle: Klucel (hydroxypropylcellulose) (HPC) 103 % of control | dose: 6.25 mg/kg/injection, schedule: Q01DX009 (ip), vehicle: Klucel (hydroxypropylcellulose) (HPC) 107 % of control | dose: 12.5 mg/kg/injection, schedule: Q01DX009 (ip), vehicle: Klucel (hydroxypropylcellulose) (HPC) 103 % of control | [1] 109 % of control | [2] 107 % of control

O=C(C=C(C(F)(F)F)C(F)(F)F)c1ccc(F)cc1
inactive: dose: 6.25 mg/kg/injection, schedule: Q04DX003 (ip), vehicle: other 109 % of control | dose: 12.5 mg/kg/injection, schedule: Q04DX003 (ip), vehicle: other 104 % of control | dose: 16.5 mg/kg/injection, schedule: Q01DX009 (ip), vehicle: saline + alcohol 110 % of control | dose: 25.0 mg/kg/injection, schedule: Q01DX009 (ip), vehicle: saline + alcohol 106 % of control | dose: 25.0 mg/kg/injection, schedule: Q04DX003 (ip), vehicle: other 118 % of control | dose: 37.5 mg/kg/injection, schedule: Q01DX009 (ip), vehicle: saline + alcohol 109 % of control

CCC1CN2CCc3cc(OC)c(OC)cc3C2C/C1=C/C(=O)O (stereo not given)
inactive: dose: 50.0 mg/kg/injection, schedule: Q01DX009 (ip), vehicle: suspension in saline 95 % of control | dose: 100.0 mg/kg/injection, schedule: Q01DX009 (ip), vehicle: suspension in saline 92 % of control

Clc1cccc(Cl)c1CSc1nc2ccccc2n2cccc12
inactive: [1] 102 % of control | [2] 105 % of control | dose: 200.0 mg/kg/injection, schedule: Q01DX009 (ip), vehicle: Klucel (hydroxypropylcellulose) (HPC) 105 % of control

COc1ccc(C(CC(=O)O)CC(=O)N(CCCl)CCCl)cc1C (stereo not given)
inactive: dose: 100.0 mg/kg/injection, schedule: Q04DX003 (ip), vehicle: saline 102 % of control | dose: 200.0 mg/kg/injection, schedule: Q04DX003 (ip), vehicle: saline 100 % of control | dose: 400.0 mg/kg/injection, schedule: Q04DX003 (ip), vehicle: saline 100 % of control

O=c1c2ccccc2[nH]c2c1[nH]c1ccccc12
inactive: [3] 89 % of control | dose: 100.0 mg/kg/injection, schedule: Q01DX005 (ip), vehicle: Klucel (hydroxypropylcellulose) (HPC) 90 % of control

Cc1cc(N/N=C/c2ccccn2)c2cc3c(cc2n1)OCO3
inactive: dose: 12.5 mg/kg/injection, schedule: Q01DX005 (ip), vehicle: Klucel (hydroxypropylcellulose) (HPC) 103 % of control | dose: 25.0 mg/kg/injection, schedule: Q01DX005 (ip), vehicle: Klucel (hydroxypropylcellulose) (HPC) 104 % of control | [3] 101 % of control and 104 % of control

Nc1nc(N)c(-c2ccc(Cl)c(Cl)c2)c(COc2cccc(CNC(=O)c3cccc(S(=O)(=O)F)c3)c2)n1
inactive: dose: 100.0 mg/kg/injection, schedule: Q04DX003 (ip), vehicle: Klucel (hydroxypropylcellulose) (HPC) 110 % of control | dose: 400.0 mg/kg/injection, schedule: Q04DX003 (ip), vehicle: Klucel (hydroxypropylcellulose) (HPC) 120 % of control

COC(=O)c1nnc2n1-c1ccc(Cl)cc1C(c1ccccc1)=[N+]([O-])C2
inactive: dose: 50.0 mg/kg/injection, schedule: Q04DX002 (ip), vehicle: saline with Tween-80 96 % of control | dose: 100.0 mg/kg/injection, schedule: Q04DX002 (ip), vehicle: saline with Tween-80 104 % of control | dose: 200.0 mg/kg/injection, schedule: Q04DX002 (ip), vehicle: saline with Tween-80 99 % of control

CC1=NN(c2ccccc2)C(=O)C1=Nc1c(C)[nH]n(-c2ccccc2)c1=O
inactive: dose: 15.0 mg/kg/injection, schedule: Q01DX009 (ip), vehicle: saline with Tween-80 103 % of control | dose: 30.0 mg/kg/injection, schedule: Q01DX009 (ip), vehicle: saline with Tween-80 101 % of control | dose: 50.0 mg/kg/injection, schedule: Q01DX005 (ip), vehicle: saline with Tween-80 114 % of control and 96 % of control | dose: 60.0 mg/kg/injection, schedule: Q01DX009 (ip), vehicle: saline with Tween-80 105 % of control | dose: 100.0 mg/kg/injection, schedule: Q01DX005 (ip), vehicle: saline with Tween-80 104 % of control and 102 % of control | dose: 200.0 mg/kg/injection, schedule: Q01DX005 (ip), vehicle: saline with Tween-80 98 % of control and 110 % of control

O=C(c1ccccc1)C(O)n1ccnc1 (stereo not given)
inactive: dose: 50.0 mg/kg/injection, schedule: Q01DX009 (ip), vehicle: distilled water + alcohol 102 % of control | dose: 100.0 mg/kg/injection, schedule: Q01DX009 (ip), vehicle: distilled water + alcohol 104 % of control | dose: 200.0 mg/kg/injection, schedule: Q01DX009 (ip), vehicle: distilled water + alcohol 107 % of control
